System: DNA polymerase
Settings: surface-anchored primer/template DNA, stepwise reactions, FIG. 2(b); Cy5-dCTP detected by spFRET with Cy3-dUTP
Protocol: FIG. 2a(1) is an image of the slide surface: Annealed primer/template DNA molecules detected by Cy3 fluorescence from the labeled primer. Scale bar, 10 µm. […] FIG. 2a(3) is an image of the slide surface: Labeled nucleotide fluorescence after successful incorporation by DNA polymerase. Note; prior to the incorporation reaction, the primer fluorescence shown in FIG. 2a(1) was photo-bleached. After incubation of template DNA molecules with DNA polymerase and a labeled dNTP, the sequencing chamber was flushed to prevent fluorescent detection of unincorporated labeled dNTPs. […] FIG. 2a(5) is an overlay of the primer/template positions with the labeled nucleotide positions.
Observations of single-molecule fluorescence can be made using a conventional microscope equipped with total internal reflection (TIR) illumination. […] First, the surface of a quartz slide is chemically treated to specifically anchor template nucleic acid molecules while preventing non-specific binding of labeled dNTPs present in the sequencing reaction. A plastic flow cell is then attached to the surface of the slide to facilitate the exchange of buffers and reagents. Next, biotinylated oligonucleotides, serving as sequencing templates, are annealed to a fluorescently labeled primer. Template nucleic acid molecules are bound to the slide surface via streptavidin and biotin at a surface density low enough to resolve single nucleic acid molecules. The primed templates are detected via their fluorescent tags and their locations are recorded for future reference. After noting the location of each template nucleic acid molecule, their fluorescent tags are photo-bleached. Labeled dNTPs and polymerase (or polymerizing agent) are then washed in and out of the flow cell, one dNTP at a time, while the known locations of the template nucleic acid molecules are monitored for fluorescence, an indication that the primer annealed to the template nucleic acid molecule had been extended by one labeled nucleotide.

Molecule | incorporation of labeled dNTP by DNA polymerase (selectivity and fidelity)
CCN1/C(=C/C=C/C2=[N+](CCCCCC(=O)NCC#Cc3cn(C4CC(O)C(COP(=O)([O-])OP(=O)([O-])OP(=O)([O-])[O-])O4)c(=O)nc3N)c3cc(S(=O)(=O)O)ccc3C2(C)C)C(C)(C)c2ccc(S(=O)(=O)[O-])cc21.[Li+].[Li+].[Li+].[Li+] (stereo not shown) [Cy3-dCTP] | correctly refusing to incorporate
Cy3-dUTP | correctly incorporated
Cy5-dCTP | correctly incorporated
Cy5-dUTP | correctly refusing to incorporate

Source: US20100190151A1 (priority 2003, published 2010)
